Measurements reported in patent publication US7138361B2, “Herbicidal heterocycles” (E. I. du Pont de Nemours and Company, priority 2000, dated 2006).

What was measured:
Assay type in all cases: in vivo
Nightshade = assay: Test C preemergence; conditions: visual evaluation after 12 to 14 days
[1] = tested on: crabgrass (Digitaria sanguinalis); assay: Test B preemergence
Summary of the method: (§1)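 Greenhouse test: chemicals are formulated in a surfactant-containing non-phytotoxic solvent and applied either preemergence to planted seeds or postemergence to plants 2 to 18 cm tall. Response is rated visually versus controls after 13 to 15 days, 0 meaning no effect and 100 complete control.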

[2] = tested on: giant foxtail (Setaria faberii); assay: Test B preemergence
Summary of the method: as §1

[3] = tested on: morning glory (Ipomoea hederacea); assay: Test B preemergence
Summary of the method: as §1

[4] = tested on: Surinam grass (Brachiaria decumbens); assay: Test B preemergence
Summary of the method: as §1

[5] = tested on: cocklebur (Xanthium strumarium); assay: Test B preemergence
Summary of the method: as §1

rice (Oryza saliva) = assay: Test B preemergence
Summary of the method: as §1

[6] = tested on: pigweed (Amaranthus retroflexus); assay: Test B preemergence
Summary of the method: as §1

corn (Zea mays) = assay: Test B preemergence
Summary of the method: as §1

[7] = tested on: lambsquarters (Chenopodium album); assay: Test B preemergence
Summary of the method: as §1

[8] = Preemergence, Rate 500 g/ha, scale 0 to 100, 0 no effect, 100 complete control
[9] = preemergence, Rate 125 g/ha, scale of 0 to 100 where 0 is no effect and 100 is complete control, 13 to 15 days
[10] = preemergence, Rate 125 g/ha, scale 0 to 100, 0 no effect, 100 complete control

SMILES	Plant response rating (0 to 100), Nightshade (Nightshade; Rate 500 g/ha)	Plant response rating, Crabgrass [1, 8]	Plant response rating, Crabgrass [1, 9]	Plant response rating, Foxtail, Giant [2, 8]	Plant response rating, Foxtail, Giant [2, 9]	Plant response rating, Morningglory [3, 8]	Plant response rating, Morningglory [3, 9]	Plant response rating, Surinam grass [4, 8]	Plant response rating, Surinam grass [4, 9]	Plant response rating, Cocklebur [5, 8]	Plant response rating, Cocklebur [5, 9]	Plant response rating, Rice (rice (Oryza saliva); [8])	Plant response rating, Rice (rice (Oryza saliva); [9])	Plant response rating, Pigweed [6, 8]	Plant response rating, Pigweed [6, 9]	Plant response rating, Corn (corn (Zea mays); [8])	Plant response rating, Corn (corn (Zea mays); [9])	Plant response rating, Lambsquarters [7, 8]	Plant response rating, Lambsquarters [7, 9]	other results
CCC(C)c1ccn(C2OCN(c3cccc(OC(F)F)c3)C2=O)n1 (centres unmarked) [Compound 134]	90	100	100	100	100	0	0	100	90	0	0	100	100	100	100	90	20	100	100	–
CCCC(C)c1ccn(C2OCN(c3cccc(OC(F)F)c3)C2=O)n1 (centres unmarked) [Compound 132]	20	100	100	100	100	0	0	100	80	30	0	50	0	100	70	0	0	100	100	–
CCC(CC)c1ccn(C2CCN(c3ccc(F)c(C(F)(F)F)c3)C2=O)n1 (centres unmarked) [Compound 144]	100	100	100	100	100	0	0	70	0	0	0	0	0	100	100	20	0	100	100	–
CC(C)(C)c1ccn(C2OCN(c3cccc(OC(F)F)c3)C2=O)n1 (centres unmarked) [Compound 133]	90	100	100	100	100	0	0	100	100	0	0	100	90	100	100	90	0	100	100	–
CCOc1cccc(N2CCC(n3ccc(C(C)(C)C)n3)C2=O)c1 (centres unmarked) [Compound 130]	100	100	100	100	100	100	50	100	100	50	0	100	100	100	100	70	50	100	100	–
CC(C)(C)c1ccn(C2CCN(c3cccc(C(F)(F)F)c3)C2=S)n1 (centres unmarked) [Compound 22]	–	100	–	100	–	0	–	50	–	0	–	0	–	100	–	0	–	100	–	Plant response rating (0 to 100), Nightshade (Nightshade; Rate 250 g/ha): 40; Plant response rating, Crabgrass [1, 10]: 0; Plant response rating, Foxtail, Giant [2, 10]: 30; Plant response rating, Morningglory [3, 10]: 0; Plant response rating, Surinam grass [4, 10]: 30; Plant response rating, Cocklebur [5, 10]: 0; Plant response rating, Rice (rice (Oryza saliva); [10]): 0; Plant response rating, Pigweed [6, 10]: 90; Plant response rating, Corn (corn (Zea mays); [10]): 0; Plant response rating, Lambsquarters [7, 10]: 100
CCC(C)c1ccn(C2CCN(c3ccc(F)c(C(F)(F)F)c3)C2=O)n1 (centres unmarked) [Compound 145]	90	100	100	100	100	0	0	60	0	0	0	80	0	100	100	0	0	100	100	–
CCC(CC)c1ccn(C2CCN(c3ccc(Cl)c(OC)c3)C2=O)n1 (centres unmarked) [Compound 118]	100	100	100	100	40	100	40	90	0	0	0	0	0	100	100	30	30	100	100	–
Cc1cc(C)nc(N2CCC(n3ccc(C(C)(C)C)n3)C2=O)c1 (centres unmarked) [Compound 138]	–	100	100	100	80	100	90	100	70	100	0	100	0	100	100	20	0	100	100	–
